Source: patent publication US9220705B2, “Method of treating colorectal cancer” (priority 2013, dated 2015)
Entries after “also recorded” stand apart in the source; their conditions may differ.

Tests used:
Assay type in all cases: cell-based, human
LoVo-OXP cells = test: Cellular platinum uptake by GF-AAS; conditions: LoVo-OXP resistant cells, 5 μM, 6, 24, 48 h, FIG. 2 panel B, compared with LoVo
Experimental: LoVo and LoVo-OXP cells (2×10^6) were seeded in 75 cm^2 flasks in growth medium (20 ml). After 24 h, the medium was replaced and the cells incubated for different times (6, 24 or 48 h) in the presence of the tested complexes. Cell monolayers were washed twice with cold PBS and harvested. Samples were subjected to three freezing/thawing cycles at −80° C., and then vigorously vortexed. Aliquots were removed for the determination of protein content by the BioRad protein assay (BioRad). The samples were treated with 1 mL of highly pure nitric acid (Pt: ≦0.01 μg×kg^−1, TraceSELECT® Ultra, Sigma Chemical Co.) and transferred into a microwave teflon vessel. Subsequently, samples were submitted to a standard procedure using a speed wave MWS-3 Berghof instrument (Eningen, Germany). After cooling, each mineralized sample was analyzed for platinum by using a Varian AA Duo graphite furnace atomic absorption spectrometer (Varian, Palo Alto, Calif.; USA) at the wavelength of […]. The calibration curve was obtained using known concentrations of standard solutions purchased from Sigma Chemical Co.
It is well-known that cellular uptake is an important factor influencing drug efficacy. […] The intracellular platinum was quantified by means of GF-AAS analysis and the results, expressed as μg metal mg^−1 of cellular proteins, are summarized in FIG. 2.

A431 = test: MTT cytotoxicity assay, 72 h; conditions: A431, cervix
SW480 = test: MTT cytotoxicity assay, 72 h; conditions: SW480, colon
DLD-1 = test: MTT cytotoxicity assay, 72 h; conditions: DLD-1, colon
A375 = test: MTT cytotoxicity assay, 72 h; conditions: A375, skin
MCF-7 = test: MTT cytotoxicity assay, 72 h; conditions: MCF-7, breast

SMILES: O=C1[O][Pt-2]2([NH2+]C3CCCC[C@H]3[NH2+]2)[O]C1=O (stereo partly drawn) [oxaliplatin, [(1R,2R)-cyclohexane-1,2diamine](ethanedioato)platinum(II), reference compound]
- intracellular platinum accumulation (LoVo-OXP cells): remarkably decreased; also recorded: decreases remarkably
- IC50 (A431): 3.69 ± 1.03 µM
- IC50 (SW480): 4.2 ± 0.75 µM
- IC50 (DLD-1): 5.81 ± 1.93 µM
- IC50 (A375): 2.37 ± 1.31 µM
- IC50 (MCF-7): 3.36 ± 1.69 µM
